Assay results: patent US12117387B2, “Biosensor, method for manufacturing the same, and analysis method using the same” (AJOU UNIVERSITY INDUSTRY-ACADEMIC COOPERATION FOUNDATION, priority 2020, dated 2024)

System: RAW264.7 cell line
Assay: Boyden chamber (transwell) macrophage migration versus chemoattractant concentration, retroreflection-based cytometry
Format: cell-based, rat
Conditions: 24 hours migration
Procedure: Experimental Example 3 was conducted to verify that the RAW264.7 cell line cultured in the transwell (the first chamber) coated with the retroreflective particles migrated under influence of monocytechemoattractant protein-1 (MCP-1) as the chemoattractant present in the lower chamber (second chamber), and migrated to the bottom substate of the well plate (the second chamber). In this example, DMEM (Dulbeccos Modified Eagles Medium) was used as the serum-free culture medium in the upper chamber. The culture medium in the lower chamber was composed of 1 ng/ml MCP-1, 10% Fetal Bovine Serum (FBS), and 1% Penicillin streptomycin (PS) based on DMEM (Dulbeccos Modified Eagles Medium). After the first chamber and the second chamber were combined with each other, the cell migration time was specified for 24 hours to observe the cell migration, and the cell migration was observed while culturing the cells in a cell incubator.
In Experimental Example 4, an experiment was conducted to verify whether the novel developed retroreflection-based cytometry can be used for an evaluation of cell migration dependence on the concentration of the chemoattractant as used in general cell migration analysis. The MCP-1 introduced into the well plate (the second chamber) was added into the culture medium at a concentration of each of 0, 1, 10, and 100 ng/ml. […]

In the case of “monocytechemoattractant protein-1 [MCP-1]”, the “number of migrated cells” value (100 ng/ml MCP-1 compared to each of 1 and 10 ng/ml) is reported as “reduced” and the “number of migrated cells” value (MCP-1 concentration increased from 0 to 10 ng/ml) is reported as “increased”.
